Data on 3 compounds can be found in patent US7763441B2, “Modulators of gluconeogenesis” (Wyeth, priority 2006, dated 2010).

Like-named read-outs stand apart in the source and are kept apart here.

For one assay, the system named is rat PEPCK promoter. In words: PEPCK-SEAP reporter assay in H4IIE cells. The format is cell-based. How it is done:
FIG. 5 schematically depicts the effects of EGR1 and DUSP4 expression levels on PEPCK promoter activity. For the experiments shown in panels A and B, H4IIE hepatocytes were transfected with the PEPCK-SEAP reporter plasmid and either DUSP4 or EGR1 expression plasmids or DUSP4 or EGR1 siRNA Smartpools. 24 hours after transfection the media were changed to 0.5%FBS/DMEM for 5 hours. […] Panel A depicts the effects of EGR1 modulation on PEPCK promoter activity; panel B depicts the effects of DUSP4 modulation on PEPCK promoter activity.
(§1) Panel A is a Western blot of H4IIE cells starved for 6 hours and then treated as indicated by the chart for 2 hours. […] is a specific p38 chemical inhibitor. LPS is included as a positive control of p38 activation.
The rat PEPCK promoter (−548 to +73) was amplified from rat genomic DNA using primers 5′-[…]-3′ (SEQ ID NO:8) and 5′-[…]-3′ (SEQ ID NO:9) (Xu et al. (2003)) J. Biol. Chem. 278:30187-30192). The human G6P promoter (−1227 to +57) was amplified from human genomic DNA using primers: 5′-[…]-3′ (SEQ ID NO:10) and 5′-[…]-3′ (SEQ ID NO:11). The promoters were subsequently cloned into XhoI and HindIII sites of pSEAP-BASIC vector (Clontech).
H4IIE cells were seeded in 24-well plates and transfected at 90% confluence using Tfx-50 Reagent (Promega). 0.9 μg of each SEAP reporter and 0.2 μg of pCMV-β-gal (BD Biosciences) were included. 0.4 μg of pCMV-XL5-human-DUSP4 (NM_001394, Origene) or pCMV-Sport6-human EGR1 (BC073983, Open Biosystems), or pMEV2HA-P38-WT and P38-EE (Biomyx), or empty pCMV-Sport6 were included. SiGenome Smartpool reagents were included at […]. […] 60 μl of the media was utilized for the SEAP assay (Great EscAPe SEAP Kit, BD Biosciences) and cell lysate was used for β-gal assay (Luminescent β-galactosidase detection kit, BD Biosciences).
(In general: A reporter such as luciferase makes a cellular process visible.)

A further assay relates to JNK. As to conditions: H4IIE cells, data not shown. The source says:
Members of the DUSP family show differing specificities for the MAPK family of kinases. DUSP4 has been previously shown to dephosphorylate and inactivate the MAPK family members ERK and JNK, but not p38.
(§2) FIG. 7A includes a Western blot probed with anti-p38 or anti-phosphor-p38 antibodies (Cell Signaling Technology) at a 1:1000 dilution.

Another assay deals with DUSP4 protein. As to conditions: H4IIE. The protocol:
(§3) As in FIG. 2, the anti-tubulin blot is a loading control.
Lysates were prepared with a buffer containing 20 mM Tris (pH 7.5), 150 mM NaCl, 1 mM EDTA, 1 mM EGTA, 1% Triton X-100, 2.5 mM sodium pyrophosphate, 1 mM β-glycerophosphate, 1 mM sodium vanadate, and 1 μg of leupeptin/ml. 20 μg of lysate for each sample was run on NuPAGE 10% polyacrylamide bis/tris gels (Invitrogen) and transferred to PVDF membrane. Following blocking with 5% milk in TBS, anti-EGR1 (SC-110, Santa Cruz) at 1:1000 or anti alpha-tubulin (Abcam) at 1:2000 was blotted in TBS with 0.1% Tween. Goat anti-mouse HRP (Jackson Immuno-Research) was used at 1:5000 and blots were visualized by using enhanced chemiluminescence (NEN).
(§4) Taqman was utilized since the DUSP4 probe set on the RAE430 2.0 array was not as sensitive as the DUSP4 set on the MOE430 2.0 array.

The test system of another assay is DUSP4 mRNA. As to conditions: H4IIE, AICAR.
Text: as §3, §4

Another assay deals with DUSP4 message. As to conditions: AML12, 500 μM AICAR. The protocol:
(§5) Each gene is represented by a single row and each sample, in triplicate at each time point, by a column. […] The mean expression±STD of DUSP4 (qualifier #1428834_at) and EGR1 (qualifier #1417065_at) are illustrated graphically as well as highlighted in yellow on the cluster.
(§6) AML12 cells were maintained in DMEM/F12 medium containing 10% FCS, […], 5 ng/ml selenium and 40 ng/ml dexamethasone.
(§7) Double-stranded cDNA was synthesized starting with 5 μg of total RNA from the cells using the SuperScript System (Invitrogen, Carlsbad, Calif.). The cDNA was purified by filtration through Multiscreen filter plate (Millipore), and transcribed in vitro using T7 RNA polymerase (Epicentre, Madison, Wis.) and biotinylated nucleotides (Perkin-Elmer, Boston, Mass.). Hybridization buffer containing the spike pool reagent was added to each of the fragmented cRNA mixtures and each sample was hybridized to the Mouse Genome 430 2.0 array ([…]) or Rat Genome 230 2.0 array (RAE230) (Affymetrix, Santa Clara) at 45° C. for 18 hours as recommended by the manufacturer. The hybridized chips were washed and stained using Affymetrix Fluidics Station 450 and the EukGE-WS2v4—450 protocol as recommended by the manufacturer. The staining was performed using streptavidin-phycoerythrin conjugate (SAPE; Molecular Probes, Eugene, Oreg.), followed by biotinylated antibody against streptavidin (Vector Laboratories, Burlingame, Calif.), and then SAPE. The chips were scanned using an Affymetrix Genechip Scanner and .cel files were generated with Affymetrix Microarray Suite 5.0 (MAS 5.0) software.
(§8) Using normalized data, after removing lowly expressed genes, we performed ANOVA analysis.

The next assay concerns EGR1 message. To be noted: AML12, 500 μM AICAR. How it is done:
as §5, §6, §7, §8

A further assay has as its system G6P and PEPCK expression. To be noted: rat hepatoma cells or primary hepatocytes (Lochhead et al. 2000); cited from earlier work.
The subject of assay [1] is rat DUSP4 promoter EGR1 site. To be noted: H4IIE, AICAR 2 or 6 hours.
Method: Arrows indicate sites of primers used for chromatin immunoprecipitation assay (−72 to −261 bp from the transcriptional start site).
To cross-link protein and DNA, formaldehyde was added at a 1% (vol/vol) concentration to H4IIE cells in a 100 mm dish. Fixation proceeded for 10 min at room temperature with gentle shaking and was stopped with the addition of glycine to a final concentration of 0.125M, and then the mixture was incubated at room temperature for 5 min. The cells were then washed twice with cold phosphate-buffered saline (PBS), harvested, and washed once with PBS containing PMSF. The cell pellet was lysed with immunoprecipitation assay lysis buffer (150 mM NaCl, 1% NP-40, 0.5% deoxycholate, 0.1% sodium dodecyl sulfate [SDS], 50 mM Tris [pH 8], 5 mM EDTA and protease inhibitors [1 mM PMSF, 10 μg of aprotinin/ml, 10 μg of leupeptin/ml]) and incubated on ice for 10 min. The resulting lysate was sonicated to give chromatin of an average length of 600 to 1,000 bp. The lysate was then microcentrifuged at 14,000 rpm for 10 min at 4° C. The lysate was then precleared with 50 μl of protein A beads (IPA 400; Repligen) for 15 min. Immunoprecipitations were performed overnight with 2 μg of antibody in a total volume of 500 μl at 4° C. […] A 5 μl aliquot was analyzed by PCR with Vent polymerase (NEB). […]
Another assay concerns EGR1 expression. As to conditions: H4IIE, AICAR. The protocol: The anti-tubulin blot is a loading control.
as §7
Total RNA was isolated from these cells and hybridized on the RAE430 2.0 array and analyzed in the same manner as the AML12 cells.

Another assay deals with T1, p38 (Rattus norvegicus, UniProt P70618).
T1 construct: addition of cAMP to serum starved H4IIE cells for 2 hours leads to an increase in the phosphorylation of p38; endogenous in cells; host or cells: H4IIE rat hepatoma cells
In words: Western blot of p38 phosphorylation in serum starved H4IIE cells. The format is cell-based. As to conditions: 2 hours. How it is done:
as §1, §2

For a further assay, the system named is Fao hepatoma cells. In words: Glucose production assay in Fao cells. The format is cell-based. To be noted: cAMP plus dexamethasone, 500 μM AICAR. The protocol:
For the experiment shown in panel A, Fao cells were transfected with either EGR1 or DUSP4 siRNA Smartpools. […] The cells were then cultured with phenol-red and glucose free RPMI1640 with 20 mM lactate and 2mM pyruvate. After 3 hours the media was collected and glucose output was determined. The data are presented as relative glucose production with the untreated transfected cells' glucose output set as 1. The asterisk indicates key changes between samples. P-values of all changes are ≦0.01 as determined by T-test. Panel B contains Western blots of EGR1 and DUSP4 or representative samples from the glucose production assay following transfection with the indicated siRNA Smartpools. The tubulin blot is included as a loading control.
1 million Fao cells cultured in RPMI1640 with 10% FCS were transfected with siGenome SMARTpool reagents for EGR1 (#M-100247-00), DUSP4 (#M-098966-00), or siCONTROL Non-Targeting siRNA (Dharmacon) using Optifect (Invitrogen) at 25 nM final concentration. […] Medium was collected 5 hours later and subjected to glucose measurement using the Amplex® Red Glucose/Glucose Oxidase Assay Kit (Molecular Probes). Cells were lysed and protein concentration was determined. The glucose output rate was normalized by cellular protein concentration and expressed as μg glucose/mg protein/5 hr. […]

A further assay relates to EGR1. As to conditions: Bauer et al. 2005; cited from earlier work.

T1 sequence (P70618 whole entry): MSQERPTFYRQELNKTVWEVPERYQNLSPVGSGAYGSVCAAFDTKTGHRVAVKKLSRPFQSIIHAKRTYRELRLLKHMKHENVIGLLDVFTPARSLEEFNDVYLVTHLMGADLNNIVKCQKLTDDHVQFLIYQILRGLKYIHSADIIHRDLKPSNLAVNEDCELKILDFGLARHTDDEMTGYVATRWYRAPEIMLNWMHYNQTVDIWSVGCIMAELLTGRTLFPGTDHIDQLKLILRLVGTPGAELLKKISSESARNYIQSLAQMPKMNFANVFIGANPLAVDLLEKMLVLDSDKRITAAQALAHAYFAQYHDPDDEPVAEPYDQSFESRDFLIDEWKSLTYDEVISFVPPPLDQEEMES

For the compound `NC(=O)c1ncn([C@@H]2O[C@H](CO)[C@@H](O)[C@H]2O)c1N` [AICAR], in the assay on rat PEPCK promoter (100 μM AICAR by itself), the “Inhibition of PEPCK activation at low AICAR concentration” value is given as “not sufficient to inhibit PEPCK activation”. In addition, the “PEPCK transcription (activation)” value in the assay with rat PEPCK promoter (100 μM AICAR, without exogenous EGR1) is reported as 12 fold. In addition, in the assay on rat PEPCK promoter (AICAR, control siRNA included), the “Repression of cAMP and dexamethasone activation of PEPCK reporter” value is “fully repressed”. Moreover, the “Effect on cAMP activation of the PEPCK promoter” value in the assay with rat PEPCK promoter (FIG. 7B) is “repress cAMP activation of the PEPCK promoter”. Besides, the “Inhibition of cAMP and dexamethasone activation of the PEPCK promoter” value in the assay with rat PEPCK promoter (PEPCK-SEAP, AICAR 500 μM or DUSP4 expression vector) was “approximately 36 fold”. In addition, the JNK activity result in the assay on JNK is listed as “not inhibited”. The “Time of AICAR treatment within which DUSP4 is induced” value in the assay with DUSP4 protein (AICAR) is ≤ 2 h. Further, the “DUSP4 protein level (Western blot)” value with DUSP4 protein (AICAR time course, decrease to more basal levels at 12 hours) is “increase of DUSP4 protein at 2 and 6 hours”. The DUSP4 message increase came out at 20 fold in the assay on DUSP4 mRNA (2 hours), 4 fold in the assay with DUSP4 mRNA (6 hours) and 4 fold in the assay with DUSP4 mRNA (24 hours). For the same compound, the figures for the “DUSP4 message increase relative to untreated controls” value in the assay with DUSP4 message (2 hours), with DUSP4 message (6 hours) and in the assay with DUSP4 message (24 hours) were 4 fold, 6 fold and 5 fold, respectively. Moreover, the “EGR1 increase relative to control” value is 3 fold in the assay with EGR1 message (2 hours), 3 fold in the assay with EGR1 message (6 hours) and 2 fold in the assay with EGR1 message (24 hours). Also, the “Expression of G6P and PEPCK” value in the assay on G6P and PEPCK expression is “inhibits expression G6P and PEPCK”. Also, the “EGR1 site of DUSP4 promoter amplified after anti-EGR1 chromatin immunoprecipitation (189 bp PCR product)” value in assay [1] is on record as “amplified”. The “EGR1 expression increase relative to control” value in the assay with EGR1 expression (2 hours) worked out at 6 fold; with EGR1 expression (6 hours) it was 5 fold; in the assay on EGR1 expression (24 hours), 3 fold. Moreover, the “cAMP-induced phosphorylation of p38 (Western blot)” value on p38 was “inhibited”. The “Glucose output after inhibition, distance from untreated levels” value in the assay on Fao hepatoma cells is reported as ≤ 30%.

Turning to `CCCCCCCCCCCCCC(=O)O[C@@H]1[C@@H](C)[C@@]2(O)[C@@H](C=C(CO)C[C@]3(O)C(=O)C(C)=C[C@@H]23)[C@@H]2C(C)(C)[C@]12OC(C)=O` [TPA, 12-O-tetradecanoylphorbol-13-acetate], the EGR1 biosynthesis entry in the assay with EGR1 is “strongly upregulates EGR1 biosynthesis”.

On to SB205830, for which the “cAMP-induced phosphorylation of p38 (Western blot)” value at p38 is “inhibited”.
